# Entries after “also recorded” stand apart in the source; their conditions may differ.
# What was measured:
# [1] = Prophylactic study: hematological parameters; assay type: in vivo, Wistar strain albino rats; conditions: HFD+normal diet, day 0
# [2] = test system: heart, spleen, lungs, kidney, liver, Aorta; test: Therapeutic study: histopathology (heart, spleen, lungs, kidney, liver, aorta); assay type: in vivo
# From the text: FIG. 7 depicts the histopathological images of heart. […] FIG. 8 depicts the histopathological images of spleen. […] FIG. 9 depicts the histopathological images of lungs. […] FIG. 10 depicts the histopathological images of kidney. […] FIG. 11 depicts the histopathological images of liver.
# (§1) The long-term rise in the electrolyte such as Na and are associated with blood pressure disorders impacting the heart.
# [3] = test system: heart, spleen, lungs, kidney, liver; test: Prophylactic study: histopathology (heart, spleen, lungs, kidney, liver); assay type: in vivo, Wistar strain albino rats; conditions: HFD
# From the text: FIG. 1 depicts the histopathological images of heart.
# FIG. 2 depicts the histopathological images of Spleen. […] However, this indicates the safety of the composition of the present invention on spleen.
# FIG. 3 depicts the histopathological images of Lungs. […] However, this indicates the safety of the composition of the present invention on lungs.
# FIG. 4 depicts the histopathological images of kidney. […] However, this indicates the safety of the composition of the present invention on kidney.
# FIG. 5 depicts the histopathological images of liver. […] It also indicates the safety of the composition of the present invention on liver. The composition of the present invention was also found useful to prevent the deposition of the fat bodies.
# [4] = Prophylactic study: hematological parameters; assay type: in vivo, Wistar strain albino rats; conditions: HFD+normal diet; for Lymphocyte / Neutrophils: in % (unit assumed)
# Method: Wistar strain albino rats of body weight ranging from 190-225 g were selected for the present study. The temperature and humidity were kept at optimum (22+2° C.; 40-70% and animals were exposed to natural chronological day night cycles. The experiments were carried out in conformity with the Institutional Animal Ethics Committee.
# The 6 groups were as follows: • 1. Normal Control • 2.
# 1.5-2 ml blood sample was taken from retino-orbital chamber in vials for biochemical estimations at every 15 days. Investigations performed included detailed Total Cholesterol—TC (mg/dl), Triglyceride—TG (mg/dl), High Density Lipoprotein—HDL-C (mg/dl), Low Density Lipoprotein—LDL-C (mg/dl), Very Low-Density Lipoprotein—VLDL (mg/dl), WBC (10^3/u1), RBC (10^6/u1), Hb (g/dl), PCV (%), Reticulocyte (%), Platelet count 10^5/mm^3, Clotting time (Sec), Neutrophils, Lymphocyte, Monocyte and Eosinophil. The estimations were done with Ecoline kits from Erba Mannheim, ERBA diagnostics Mannheml, Germany using Semi Autoanalyzer RX50 of MicroLabs Instruments and COUNCELL21 of Tulip Diagnostics Pvt. Ltd. Lipid peroxidation (Plasma & Liver), HMG Co-Reductase, Creatine phosphokinase (CPK), Lactate dehydrogenase (LDH), SGOT and SGPT were estimated at the end of both the studies using the kits.
# [5] = rat, in vivo
# Method: The prophylactic study which lasted 90 days used 6 rats per group. […] The 6 groups were as follows: • 1. Normal Control • 2. High Fat Diet (HFD) 1 ml 1/d+Normal Diet • 3. High Fat Diet (HFD)+Normal Diet+the composition of the present invention (OD) • 4, High Fat Diet (HFD)+Normal Diet+the composition of the present invention (BD) • 5. […] The body weights were recorded to the nearest gram (g) with proper tare to 0.0000 with the subject at steady state on the weighing machine. The same weighing machine was used for all the subjects. The machine was tested with a known set of weights for any error.
# as §1
# [6] = Prophylactic study: HbA1c / blood glucose level; assay type: in vivo, Wistar strain albino rats; conditions: HFD fed groups
smiles,measurement,setting,value
"CC(C)c1c(C(=O)Nc2ccccc2)c(-c2ccccc2)c(-c2ccc(F)cc2)n1CC[C@@H](O)C[C@@H](O)CC(=O)O [Statin, Atorvastatin]",Platelet count,[1],1040 ± 15.2 10³/µL
same,histopathology of heart,[2]; HFD,cardiac muscle were found stressed
same,aorta plaque reduction,[2]; HFD continued,mild
same,aorta plaque reduction,[2]; HFD discontinued,moderate reduction in the plaque
same,damage to the endothelial lining,[2]; aorta histopathology,mild damage to the endothelial lining
same,histopathology of heart,[3],relaxation in the cardiac muscles as the fat content was decreased
same,histopathology of liver (fatty liver grade),[3]; composition at OD and BD dose levels,dilation of hepatic portal triad was more evident; also recorded: from grade 2 to grade 1
same,Clotting time,[4]; day 0,109.0 ± 1.10 s
same,Eosinophil,[4]; day 0,1.1%
same,Hb,[4]; day 0,11.95 ± 1.10 g/dL
same,Monocyte,[4]; day 0,1.4%
same,PCV,[4]; day 0,42.50 ± 1.80%
same,RBC,[4]; day 0,7.20 ± 0.20 10^6/μl
same,Reticulocyte,[4]; day 0,1.15 ± 0.05%
same,WBC,[4]; day 0,8.90 ± 0.55 10^3/μl
same,Lymphocyte,[4]; day 0,71.5
same,Neutrophils,[4]; day 0,26
same,Clotting time,[4]; day 15,107.45 ± 0.77 s
same,Eosinophil,[4]; day 15,1.3%
same,Monocyte,[4]; day 15,1.4%
same,PCV,[4]; day 15,35.85 ± 1.11%
same,Platelet count,[4]; day 15,905 ± 21.2 10³/µL
same,RBC,[4]; day 15,7.20 ± 0.81 10^6/μl
same,Reticulocyte,[4]; day 15,1.10 ± 0.11%
same,WBC,[4]; day 15,9.79 ± 0.57 10^3/μl
same,Lymphocyte,[4]; day 15,72.7
same,Neutrophils,[4]; day 15,24.6
same,Clotting time,[4]; day 30,110.0 ± 1.0 s
same,Eosinophil,[4]; day 30,1.15%
same,Monocyte,[4]; day 30,1.6%
same,Platelet count,[4]; day 30,1060 ± 23.3 10³/µL
same,RBC,[4]; day 30,7.20 ± 0.20 10^6/μl
same,Reticulocyte,[4]; day 30,1.08 ± 0.10%
same,WBC,[4]; day 30,9.03 ± 0.3 10^3/μl
same,Lymphocyte,[4]; day 30,71.25
same,Neutrophils,[4]; day 30,26
same,Clotting time,[4]; day 45,114.0 ± 1.00 s
same,Eosinophil,[4]; day 45,1.15%
same,Hb,[4]; day 45,12.00 ± 1.20 g/dL
same,Monocyte,[4]; day 45,1.4%
same,PCV,[4]; day 45,42.10 ± 1.30%
same,RBC,[4]; day 45,7.05 ± 0.21 10^6/μl
same,Reticulocyte,[4]; day 45,1.25 ± 0.06%
same,WBC,[4]; day 45,9.00 ± 0.50 10^3/μl
same,Lymphocyte,[4]; day 45,71.45
same,Neutrophils,[4]; day 45,26
same,Clotting time,[4]; day 60,112.0 ± 1.05 s
same,Hb,[4]; day 60,12.20 ± 1.12 g/dL
same,PCV,[4]; day 60,43.10 ± 1.30%
same,RBC,[4]; day 60,7.06 ± 0.31 10^6/μl
same,Reticulocyte,[4]; day 60,1.35 ± 0.06%
same,WBC,[4]; day 60,8.00 ± 0.60 10^3/μl
same,Lymphocyte,[4]; day 60,71.45
same,Neutrophils,[4]; day 60,26
same,Clotting time,[4]; day 75,110.81 ± 5.86 s
same,Eosinophil,[4]; day 75,1.22%
same,Hb,[4]; day 75,12.82 ± 0.25 g/dL
same,Platelet count,[4]; day 75,1070 ± 22.9 10³/µL
same,RBC,[4]; day 75,7.36 ± 0.21 10^6/μl
same,Reticulocyte,[4]; day 75,1.70 ± 0.05%
same,WBC,[4]; day 75,8.71 ± 0.23 10^3/μl
same,Lymphocyte,[4]; day 75,71.12
same,Neutrophils,[4]; day 75,26.28
same,Clotting time,[4]; day 90,111.00 ± 5.57 s
same,Eosinophil,[4]; day 90,1.35%
same,Hb,[4]; day 90,12.78 ± 0.28 g/dL
same,Platelet count,[4]; day 90,1070 ± 22.9 10³/µL
same,RBC,[4]; day 90,7.37 ± 0.20 10^6/μl
same,Reticulocyte,[4]; day 90,1.73 ± 0.02%
same,WBC,[4]; day 90,8.76 ± 0.19 10^3/μl
same,Lymphocyte,[4]; day 90,70.82
same,Neutrophils,[4]; day 90,26.37
same,Sodium and potassium level,[5],enhanced
same,Blood glucose level,[6],able to maintain Blood glucose level similar to normal diet group

# Reference: patent US20230270804A1, “ANTI-HYPERCHOLESTEROLEMIA COMPOSITION AND A METHOD OF MANUFACTURING THE SAME” (NBI BIOSCIENCES PRIVATE LIMITED, priority 2020, published 2023)
